Measured values from patent US5945450A, “Naphthalene derivative” (Teijin Limited, priority 1994, dated 1999).

Experiments:
Assay type in all cases: cell-based
human IgE antibodies = assay: In vitro inhibition of the production of human IgE antibodies (lymphocytes + IL-4 + anti CD40Ab + IL-10, ELISA); details: Lymphocyte, 3 μM, read-out: Inhibition of antibody production (%) IgE
Method: (§1) According to the method described in J. Immunol., 146:1836-1842, 1991 and J. Immunol., 147:8-13, 1991, the concentrations of IgE and IgG antibodies were measured by the procedures described below.
(§2) Peripheral venous blood was sampled from the healthy person, and submitted to density-gradient centrifugation to isolate lymphocytes. The lymphocytes thus obtained were washed and suspended in a culture medium (RPMI-1640 (provided by Gibco)+10% heat-inactivated FCS (Whittaker)+100 µg/ml streptomycin+100 U/ml penicillin+2mM L-glutamine). The cell suspensions were cultured for 1 week in the presence/absence of the compounds of this invention at the concentrations as described in Tables 3-1 to 3-2 together with human interleukin 4 (IL-4, Genzyme)([…]), anti CD40 antibodies (anti CD40Ab, Biosource, clone B-B20)([…]) and human interleukin 10 (IL-10, Genzyme)([…]). The culture medium was supplied freshly to the cell suspension, and the mixture was further cultured for another week. The supernatant was sampled and the concentrations of IgE and IgG antibodies therein were measured by sandwich ELISA.
(§3) The ELISA was based, for the assay of IgE antibodies, on the use of rabbit anti-human IgE() antibodies (ICN) as the primary antibody and biotin-linked anti-human IgE monoclonal antibodies (G7-26, PharMingen) as the secondary antibody. For the assay of IgG antibodies, anti-human IgG monoclonal antibodies (G18-145, PharMingen) and biotin-linked donkey anti-human IgG antibodies (H+L)(Jackson) were used for the primary and secondary antibodies, respectively. For the assay of both IgE and IgG antibodies, Avidin-Biotin-Horse Radish Peroxidase (ABC kit, Vector Lab) and TMB (3,3',5,5'-tetramethylbenzidine) microwell peroxidase substrate system (Kirkegaard & Perry Laboratories Inc.) were used as the enzyme and the substrate, respectively. The assays were made by the use of conventionally known ELISA.
(§4) The inhibitory effect (%) of a given compound of this invention on the production of the antibody was calculated with respect to the concentration of the same antibody when the compound was not coexistent (refer to Uejima et al., American Academy of Allergy and Immunology, Proceedings of 1995 Annual Meeting, Program No. 818).

human IgG antibodies = assay: In vitro inhibition of human IgG antibody production (lymphocytes + IL-4 + anti CD40Ab + IL-10, ELISA); details: Lymphocyte, 3 μM
Method: as §1, §2, §3, §4

TF (tissue factor) = assay: Inhibitory effects on the TF production in LPS-stimulated human peripheral blood monocytes; details: Monocyte, LPS 1 μg/ml, 16 hours
Method: Peripheral venous blood was sampled from the healthy person, and submitted to density-gradient centrifugation so that monocytes might be isolated. The monocytes thus obtained were washed with minimum essential medium (MEM, Gibco) and suspended in a culture medium (RPMI-1640(Gibco)+25 mM HEPES buffer+100 μg/ml streptomycin+100 U/ml penicillin G+2 mM L-glutamine) to give a suspension with a density of 1×10^6 cells/ml. A 0.15 ml of the cell suspension was placed onto each of the wells of a 96-well microplate, to which the compound of this invention as described in Tables 4-1 to 4-2 was added (0.05 ml of the culture medium), and the assembly was placed for 1 hour in a CO2 incubator for cultivation. Then, LPS (lipopolysaccarides, E. coli 0111B4, Difco) 1 μg/ml was added thereto, and the assembly was further cultured for 16 hours. After the supernatant being removed, the residue was washed with physiological saline, 0.1 ml of 16 mM OG (n-octyl-β-D-glucopyranoside) was added thereto, and the assembly was stirred to make TF soluble. A 0.2 ml of physiological saline was added to each residue (final dilution was […]) and this preparation was used for determination of the coagulation stimulating activity (TF-like activity). The test compound had been dissolved in DMSO to give a 0.1 M solution which was diluted with the culture medium prior to use. The final concentration of DMSO was 0.01% or less.
To each well of the microplate, 50 μl of human plasma and 50 μl of the test sample prepared as above for determination of the coagulation stimulating activity, or 50 μl of standard thromboplastin (human thromboplastin, Thromborel S, Behringwerke) were added. The microplate was incubated at 37° C. for 5 minutes, to which was added 25 mM CaCl2 (50 μl/well) containing phosphorous lipids (Platelin, Organon Teknica) at a concentration of […] to initiate coagulation. Coagulation was determined on the basis of absorption at 540 nm, and the measurement lasted 7 to 20 minutes. The data were analyzed with a data analyzing software SOFTMax (Molecular Devices) and the maximum rate time was taken as the coagulation time. The logarithmic values of the coagulation times and standard thromboplastin concentrations are plotted, and a regression parabola was drawn among the dots to give a test curve. From the curve, the inhibitory effect (%) of a given test compound on TF production was calculated. (Refer to J. Imnmunol. Methods, 133:21-29, 1990, and Proc. Natl. Acad. Sci. USA, 89:10370-10374, 1992).

| SMILES | inhibition at 3 µM (human IgE antibodies) [%] | inhibition at 3 µM (human IgG antibodies) [%] | inhibition at 1 µM (TF (tissue factor)) [%] | inhibition at 3 µM (TF (tissue factor)) [%] | inhibition at 10 µM (TF (tissue factor)) [%] |
| --- | --- | --- | --- | --- | --- |
| COC(=O)c1ccccc1NC(=O)c1ccc(Oc2ccc3ccccc3c2)cc1 [Compound No. 1101, 2-(4-(2-naphthyloxy)benzamide)benzoic Acid Methyl Ester] | 30.3 | -2.8 | – | – | – |
| O=C(Nc1ccccc1)c1ccc(Oc2ccc3ccccc3c2)cc1 [Compound No. 1105, N-phenyl-4-(2-naphtyloxy)benzamide] | 42.4 | -6.4 | – | – | – |
| O=C(Nc1ccccc1O)c1ccc(Oc2ccc3ccccc3c2)cc1 [Compound No. 1106, 2-(4-(2-naphtyloxy)benzamide)phenol] | 42.6 | -25.3 | – | – | – |
| NS(=O)(=O)c1ccccc1NC(=O)c1ccc(Oc2ccc3ccccc3c2)cc1 [Compound No. 1107, 2-(4-(2-naphtyloxy)benzamide)benzenesulfonamide] | 44.9 | -17.2 | – | – | – |
| O=C(Nc1ccccc1-c1nnn[nH]1)c1ccc(Oc2ccc3ccccc3c2)cc1 [Compound No. 1109, 1-(4-(2-naphtyloxy)benzamide)-2-(tetrazol-5-yl)benzene] | – | – | 74.9 | 99.4 | 99.7 |
| Nc1cc(C(=O)Nc2ccccc2C(=O)O)ccc1Oc1ccc2ccccc2c1 [Compound No. 1118, 2-(3-amino-4-(2-naphtyloxy)benzamide)benzoic Acid] | 77.2 | -12.9 | – | 86.9 | – |
| O=C(Nc1ccccc1C(=O)O)c1ccc(Oc2ccc3cc(O)ccc3c2)cc1 [Compound No. 1202, 2-(4-(6-hydroxy-2-naphtyloxy)benzamide)benzoic Acid] | 76.6 | -8.7 | – | 33.4 | – |
| O=C(Cc1ccc(Oc2ccc3cc(O)ccc3c2)cc1)Nc1ccccc1C(=O)O [Compound No. 1208, 2-(4-(6-hydroxy-2-naphtyloxy)phenylacetamide)benzoic Acid] | 86.2 | -8.4 | – | – | – |
| N#Cc1ccccc1NC(=O)c1ccc(Sc2ccc3ccccc3c2)cc1 [Compound No. 3103, 2-(4-(2-naphtylthio)benzamide)benzonitrile] | 41.9 | 3.5 | – | 77.9 | – |
| O=C(Nc1ccccc1-c1nnn[nH]1)c1ccc(Sc2ccc3ccccc3c2)cc1 [Compound No. 3104, 1-(4-(2-naphtylthio)benzamide)-2-(tetrazol-5-yl)benzene] | – | – | – | 96.9 | – |
| O=C(Nc1ccccc1C(=O)O)c1ccc(Oc2cccc3ccccc23)cc1 [compound 1111] | 38 | 20 | -9 | 96.2 | 100 |
| O=C(Nc1ccccc1C(=O)O)c1cccc(Oc2ccc3ccccc3c2)c1 [compound 1113] | – | – | 25.3 | 83.6 | 100 |
| O=C(Nc1ccccc1C(=O)O)c1ccc(Oc2ccc3ccccc3c2)c([N+](=O)[O-])c1 [compound 1116] | 93 | 36.9 | – | 96.6 | – |
| O=C(Nc1ccccc1C(=O)O)c1ccc(Oc2ccc3ccccc3c2)c(C(=O)O)c1 [compound 1120] | 19.9 | 13.6 | – | – | – |
| O=C(Nc1ccccc1C(=O)O)c1ccc(Oc2ccc3ccccc3c2)c(C(=O)Nc2ccccc2C(=O)O)c1 [compound 1122] | 59.9 | 9.7 | – | – | – |
| COC(=O)c1ccccc1NC(=O)Cc1ccc(Oc2ccc3ccccc3c2)cc1 [compound 1123] | 21.7 | -0.8 | – | – | – |
| O=C(CCc1ccc(Oc2ccc3ccccc3c2)cc1)Nc1ccccc1C(=O)O [compound 1146] | – | – | – | 23.5 | – |

| SMILES | inhibition at 3 µM (human IgE antibodies) [%] | inhibition at 3 µM (human IgG antibodies) [%] | inhibition at 1 µM (TF (tissue factor)) [%] | inhibition at 3 µM (TF (tissue factor)) [%] | inhibition at 10 µM (TF (tissue factor)) [%] |
| --- | --- | --- | --- | --- | --- |
| O=C(C=Cc1ccc(Oc2ccc3ccccc3c2)cc1)Nc1ccccc1C(=O)O [compound 1148] | 25.5 | 10.3 | – | 92.9 | – |
| CC(C(=O)Nc1ccccc1C(=O)O)c1ccc(Oc2ccc3ccccc3c2)cc1 (stereo not drawn) [compound 1150] | 64.4 | 3.3 | – | – | – |
| COc1ccc2cc(Oc3ccc(C(=O)Nc4ccccc4C(=O)O)cc3)ccc2c1 [compound 1204] | 64 | -11.4 | 75.7 | 100 | 100 |
| O=C(Nc1ccccc1C(=O)O)c1ccc(Oc2ccc3cc(OCc4ccccc4)ccc3c2)cc1 [compound 1206] | 84 | 11.5 | – | – | – |
| CC(C)(C)Oc1ccc2cc(Oc3ccc(CC(=O)Nc4ccccc4C(=O)O)cc3)ccc2c1 [compound 1210] | 92.8 | 59.9 | – | – | – |
| O=C(Cc1ccc(Oc2ccc3cc(OC4CCCCC4)ccc3c2)cc1)Nc1ccccc1C(=O)O [compound 1212] | 89.1 | 74.6 | – | – | – |
| C=CCOc1ccc2cc(Oc3ccc(CC(=O)Nc4ccccc4C(=O)O)cc3)ccc2c1 [compound 1218] | 91.4 | 47.8 | – | – | – |
| O=C(Cc1ccc(Oc2ccc3cc(OCc4ccccc4)ccc3c2)cc1)Nc1ccccc1C(=O)O [compound 1224] | 78.6 | 83.2 | – | – | – |
| O=C(Cc1ccc(Oc2ccc3cc(OCc4ccc5ccccc5c4)ccc3c2)cc1)Nc1ccccc1C(=O)O [compound 1228] | 98.9 | 42.4 | – | – | – |
| O=C(Nc1ccccc1C(=O)O)c1ccc(Sc2ccc3ccccc3c2)cc1 [compound 3102] | 19.9 | -2.8 | – | 100 | – |
| O=C(Nc1ccccc1C(=O)O)c1ccc(Cc2ccc3ccccc3c2)cc1 [compound 4103] | 45.5 | -4.2 | 16.5 | 74.4 | 100 |
| O=C(Nc1ccccc1C(=O)O)c1ccc(COc2ccc3ccccc3c2)cc1 [compound 5102] | – | – | 19.8 | 74.1 | 99.9 |
| O=C(Cc1ccc(COc2ccc3ccccc3c2)cc1)Nc1ccccc1C(=O)O [compound 5104] | 51.4 | 1.6 | – | – | – |
| O=C(Nc1ccccc1C(=O)O)c1ccc(CSc2ccc3ccccc3c2)cc1 [compound 6102] | – | – | – | 75.8 | 100 |
| O=C(Nc1ccccc1C(=O)O)c1ccc(C(=O)c2ccc3ccccc3c2)cc1 [compound 7102] | 15.4 | 5.4 | – | 10.6 | 81.1 |
| COC(c1ccc(C(=O)Nc2ccccc2C(=O)O)cc1)c1ccc2ccccc2c1 (stereo not drawn) [compound 8102] | 60 | 9.7 | – | – | – |
